The record followed here is patent US20250214979A1, “COMPOUNDS FOR TREATING PSYCHOSTIMULANT MISUSE” (University of Florida Research Foundation, Incorporated, priority 2022, published 2025).

By inhibition is commonly meant the change of the read-out against control, counted positive when it falls.

Each structure is given as a SMILES string. Like-named read-outs stand apart in the source and are kept apart here.

One assay has as its target T1, sigma 1 (h) (Homo sapiens, UniProt Q99720).
T1 construct: endogenous; endogenous in cells; host or cells: Jurkat cells
The experiment in a line: sigma 1 (h) agonist radioligand binding assay ([3H](+)pentazocine). As to conditions: Sigma 1 Receptor, 1.00E−06 M. How it is done: (§1) 12 compounds in binding assays (either sigma 1 or sigma 2 receptors) at 1.0×10^−6 M. Compound binding was calculated as a % inhibition of the binding of a ligand specific for each target.
(§2) The results are expressed as a percent of control specific binding: [(measured specific binding)/(control specific binding)]*100 and as a percent inhibition of control specific binding: 100−{[(measured specific binding)/(control specific binding)]*100}, obtained in the presence of the test compounds.
(§3) The IC50 values (concentration causing a half-maximal inhibition of control specific binding) and Hill coefficients (nH) were determined by non-linear regression analysis of the competition curves generated with mean replicate values using Hill equation curve fitting: Y={D+[(A−D)/(1+(C/C50)^nH)]} (where Y=specific binding, A=left asymptote of the curve, D=right asymptote of the curve, C=compound concentration, C50=IC50, and nH=slope factor). This analysis was performed using software developed at Cerep (Hill software) and validated by comparison with data generated by the commercial software SigmaPlot® 4.0 for Windows® (© 1997 by SPSS Inc.). The inhibition constants (Ki) were calculated using the Cheng Prusoff equation: Ki=(IC50)/(1+L/KD) (where L=concentration of ligand in the assay, and KD=affinity of the ligand for the receptor).

Another assay concerns the target T2, sigma 2 (h) (Homo sapiens, UniProt Q5BJF2).
T2 construct: endogenous; endogenous in cells; host or cells: Jurkat cells
Description: sigma 2 (h) agonist radioligand binding assay ([3H]DTG). As to conditions: Sigma 2 Receptor, 1.00E−06 M. The procedure:
as §1, §2, §3

In another assay the target is T3, dopamine transporter (h) (Homo sapiens, UniProt Q01959).
T3 construct: expressed in transfected cells; host or cells: CHO cells
Description: dopamine transporter (h) antagonist radioligand binding assay ([3H]BTCP). The conditions noted are these: 1.00E−06 M. The procedure:
[The source words this procedure for another target and reports this target under the same test.] as §1, §2, §3

Where [1] appears, read: 1st, read-out: % Inhibition of Control Specific Binding, 1st.
Where [2] appears, read: 2nd, read-out: % Inhibition of Control Specific Binding, 2nd.
The mark [3] stands for this setting: read-out: % Inhibition of Control Specific Binding, 3rd.

T1 sequence (Q99720 whole entry): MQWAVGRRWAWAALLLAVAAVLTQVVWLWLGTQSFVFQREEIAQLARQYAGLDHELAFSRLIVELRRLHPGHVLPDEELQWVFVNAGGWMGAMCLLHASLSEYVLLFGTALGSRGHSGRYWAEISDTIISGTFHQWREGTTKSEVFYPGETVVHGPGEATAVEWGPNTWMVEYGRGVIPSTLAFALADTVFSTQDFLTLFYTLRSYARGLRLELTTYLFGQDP
T2 sequence (Q5BJF2 whole entry): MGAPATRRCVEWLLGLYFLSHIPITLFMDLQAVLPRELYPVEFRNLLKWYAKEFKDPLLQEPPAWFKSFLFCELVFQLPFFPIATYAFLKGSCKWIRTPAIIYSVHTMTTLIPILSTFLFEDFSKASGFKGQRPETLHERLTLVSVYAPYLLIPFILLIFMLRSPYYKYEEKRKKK
T3 sequence (Q01959 whole entry): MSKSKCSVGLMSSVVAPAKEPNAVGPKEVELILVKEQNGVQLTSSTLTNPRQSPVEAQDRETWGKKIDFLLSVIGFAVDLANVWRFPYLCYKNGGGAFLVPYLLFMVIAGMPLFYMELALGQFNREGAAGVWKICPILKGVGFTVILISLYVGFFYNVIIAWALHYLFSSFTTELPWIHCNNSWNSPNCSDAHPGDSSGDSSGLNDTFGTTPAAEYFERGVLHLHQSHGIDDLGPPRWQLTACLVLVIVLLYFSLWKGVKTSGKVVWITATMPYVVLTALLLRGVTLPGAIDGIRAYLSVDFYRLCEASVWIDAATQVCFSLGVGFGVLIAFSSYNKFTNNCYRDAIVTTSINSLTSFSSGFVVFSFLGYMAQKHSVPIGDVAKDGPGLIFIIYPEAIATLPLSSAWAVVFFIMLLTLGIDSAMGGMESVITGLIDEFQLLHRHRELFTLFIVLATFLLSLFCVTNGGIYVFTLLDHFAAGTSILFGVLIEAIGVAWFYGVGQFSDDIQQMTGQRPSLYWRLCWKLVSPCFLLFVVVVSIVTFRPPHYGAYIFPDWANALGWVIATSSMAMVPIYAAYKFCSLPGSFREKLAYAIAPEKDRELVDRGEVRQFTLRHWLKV

With `O=C1CCCc2ccccc2N1CCCCN1CCN(c2cccc(Cl)c2)CC1` [SMB107, 1-(4-(4-(3-Chlorophenyl)piperazin-1-yl)butyl)-1,3,4,5-tetrahydro-2H-benzo[b]azepin-2-one], the inhibition at 1 µM at sigma 1 (h) (setting [1]) worked out at 96.7%; at sigma 1 (h) (setting [2]), 97.6%; on sigma 1 (h) (setting [3]), 97.1%; at sigma 2 (h) (setting [1]), 104%; on sigma 2 (h) (setting [2]) it was 98.7%; on sigma 2 (h) (setting [3]) it was 101%. Also, the inhibition at 1 µM on dopamine transporter (h) (setting [1]) was 24.6%; at dopamine transporter (h) (setting [2]), 24.4%; on dopamine transporter (h) (setting [3]) it was 24.5%.

Turning to `O=C1CSCc2ccccc2N1CCCCN1CCN(c2cccc(Cl)c2)CC1` [STG191], the inhibition at 1 µM on sigma 1 (h) (setting [1]) worked out at 98.6%; on sigma 1 (h) (setting [2]), 98.5%; on sigma 1 (h) (setting [3]), 98.6%; at sigma 2 (h) (setting [1]), 86.2%; on sigma 2 (h) (setting [2]), 102%; at sigma 2 (h) (setting [3]), 94.4%. In addition, the inhibition at 1 µM on dopamine transporter (h) (setting [1]) turned out to be 21.8%; at dopamine transporter (h) (setting [2]), 27.6%; on dopamine transporter (h) (setting [3]) it was 24.7%.

Turning to `O=C1CCCc2ccccc2N1CCCCN1CCC2(CC1)OCc1ccccc12` [STG136, 1-(4-(3H-spiro[isobenzofuran-1,4′-piperidin]-1′-yl)butyl)-1,3,4,5-tetrahydro-2H-benzo[b]azepin-2-one], the inhibition at 1 µM was found to be 98.8% at sigma 1 (h) (setting [1]); 98.4% on sigma 1 (h) (setting [2]); 98.6% on sigma 1 (h) (setting [3]); 90.3% on sigma 2 (h) (setting [1]); 100% at sigma 2 (h) (setting [2]); 95.3% on sigma 2 (h) (setting [3]). The figures for the inhibition at 1 µM on dopamine transporter (h) (setting [1]), on dopamine transporter (h) (setting [2]) and on dopamine transporter (h) (setting [3]) were 7.9%, 11.4% and 9.7%, respectively.

Consider `O=C1CCCc2ccccc2N1CCCCN1CCN(c2ccc(Cl)cc2)CC1` [STG188], for which the inhibition at 1 µM on sigma 1 (h) (setting [1]) was found to be 98.8%; on sigma 1 (h) (setting [2]), 99.2%; on sigma 1 (h) (setting [3]), 99%; on sigma 2 (h) (setting [1]), 82.9%; on sigma 2 (h) (setting [2]), 85.9%; at sigma 2 (h) (setting [3]), 84.4%. Moreover, the results for the inhibition at 1 µM at dopamine transporter (h) (setting [1]), at dopamine transporter (h) (setting [2]) and on dopamine transporter (h) (setting [3]) were 26.5%, 23.2% and 24.8%, respectively.

As to `O=C1COCc2ccccc2N1CCCCN1CCN(c2cccc(Cl)c2)CC1` [SMB108, 1-(4-(4-(3-Chlorophenyl)piperazin-1-yl)butyl)-1,5-dihydrobenzo[e][1,4]oxazepin-2(3H)-one], the inhibition at 1 µM on sigma 1 (h) (setting [1]) worked out at 93.8%; at sigma 1 (h) (setting [2]), 95.4%; at sigma 1 (h) (setting [3]), 94.6%; on sigma 2 (h) (setting [1]) it was 95%; on sigma 2 (h) (setting [2]), 99.8%; on sigma 2 (h) (setting [3]) it was 97.4%. Moreover, the inhibition at 1 µM on dopamine transporter (h) (setting [1]) came to 28.3%; on dopamine transporter (h) (setting [2]), 25.9%; on dopamine transporter (h) (setting [3]), 27.1%.

Consider `O=C1CSCc2ccccc2N1CCCCN1CCC2(CC1)OCc1ccccc12` [STG187], for which the inhibition at 1 µM at sigma 1 (h) (setting [1]) is 93.6%; on sigma 1 (h) (setting [2]) it was 98.9%; at sigma 1 (h) (setting [3]) it was 96.3%; on sigma 2 (h) (setting [1]), 96.5%; on sigma 2 (h) (setting [2]), 108%; on sigma 2 (h) (setting [3]) it was 102%. Also, the inhibition at 1 µM turned out to be 12.9% on dopamine transporter (h) (setting [1]), 13.1% on dopamine transporter (h) (setting [2]) and 13% at dopamine transporter (h) (setting [3]).

As to `O=C1CCCc2ccccc2N1CCCCN1CCN(c2ccccc2Cl)CC1` [STG158], the inhibition at 1 µM on sigma 1 (h) (setting [1]) was 95.7%; on sigma 1 (h) (setting [2]), 93.8%; on sigma 1 (h) (setting [3]), 94.7%; on sigma 2 (h) (setting [1]), 93.2%; on sigma 2 (h) (setting [2]), 100%; on sigma 2 (h) (setting [3]) it was 96.7%. Moreover, the inhibition at 1 µM at dopamine transporter (h) (setting [1]) was -5.6%; at dopamine transporter (h) (setting [2]), -2.8%; at dopamine transporter (h) (setting [3]), -4.2%.

In the case of `O=C1CSCc2ccccc2N1CCCCN1CCN(c2ccc(Cl)cc2)CC1` [STG190], the inhibition at 1 µM on sigma 1 (h) (setting [1]) stood at 101%; on sigma 1 (h) (setting [2]) it was 101%; at sigma 1 (h) (setting [3]), 101%; on sigma 2 (h) (setting [1]), 96.4%; on sigma 2 (h) (setting [2]), 95.5%; on sigma 2 (h) (setting [3]), 95.9%. For the same molecule, the inhibition at 1 µM came out at 9.2% at dopamine transporter (h) (setting [1]), 14.8% on dopamine transporter (h) (setting [2]) and 12% at dopamine transporter (h) (setting [3]).

On to `Cn1c(=O)n(CCCCN2CCC3(CC2)OCc2ccccc23)c2ccccc21` [CM699, reference compound], for which the inhibition at 1 µM on sigma 1 (h) (setting [1]) stood at 95.6%; on sigma 1 (h) (setting [2]), 94%; on sigma 1 (h) (setting [3]) it was 94.8%; at sigma 2 (h) (setting [1]) it was 88%; on sigma 2 (h) (setting [2]) it was 95.9%; at sigma 2 (h) (setting [3]), 92%. Further, the inhibition at 1 µM on dopamine transporter (h) (setting [1]) was found to be 18.6%; at dopamine transporter (h) (setting [2]), 23.2%; on dopamine transporter (h) (setting [3]), 20.9%.

For the molecule `O=C1CSCc2ccccc2N1CCCCN1CCN(c2ccccc2Cl)CC1` [STG192], the inhibition at 1 µM was determined as 53.5% at sigma 1 (h) (setting [1]); 53.2% at sigma 1 (h) (setting [2]); 53.3% on sigma 1 (h) (setting [3]); 56.6% on sigma 2 (h) (setting [1]); 43.4% on sigma 2 (h) (setting [2]); 50% at sigma 2 (h) (setting [3]). Also, the inhibition at 1 µM on dopamine transporter (h) (setting [1]) came out at 12.6%; on dopamine transporter (h) (setting [2]), 4.3%; at dopamine transporter (h) (setting [3]), 8.5%.

On to `O=C1COCc2ccccc2N1CCCCN1CCN(c2ccc(Cl)cc2)CC1` [STG189], for which the inhibition at 1 µM amounted to 92.8% on sigma 1 (h) (setting [1]); 93.6% at sigma 1 (h) (setting [2]); 93.2% on sigma 1 (h) (setting [3]); 82.2% on sigma 2 (h) (setting [1]); 78.2% at sigma 2 (h) (setting [2]); 80.2% at sigma 2 (h) (setting [3]). The inhibition at 1 µM at dopamine transporter (h) (setting [1]) was found to be 8.6%; at dopamine transporter (h) (setting [2]), 5.1%; at dopamine transporter (h) (setting [3]) it was 6.8%.

Regarding `O=C1COCc2ccccc2N1CCCCN1CCC2(CC1)OCc1ccccc12` [STG135, 1-(4-(3H-spiro[isobenzofuran-1,4′-piperidin]-1′-yl)butyl)-1,5-dihydrobenzo[e][1,4]oxazepin-2(3H)-one], the inhibition at 1 µM at sigma 1 (h) (setting [1]) was found to be 97.9%; on sigma 1 (h) (setting [2]) it was 94.5%; at sigma 1 (h) (setting [3]), 96.2%; at sigma 2 (h) (setting [1]), 106%; on sigma 2 (h) (setting [2]), 84.4%; at sigma 2 (h) (setting [3]), 95.2%. The inhibition at 1 µM was determined as 6% on dopamine transporter (h) (setting [1]), 3.5% at dopamine transporter (h) (setting [2]) and 4.8% on dopamine transporter (h) (setting [3]).
